For assay [1], the system named is HEK-293T cells. Description: Extracellular acidification rate (ECAR), Seahorse analysis, HEK-293T cells. The following applies: trehalose 5 mM, oligomycin 1 μM, 2DG 50 mM, added in sequence. It counts as cell-based, human. The protocol: FIG. 3: Treh and Tret1 co-expression allows utilization of Trehalose as a carbon source for glycolysis. Line graph of the Extra Cellular Acidification Rate (ECAR) of Tret1-3×Flag and Treh-GFP expressing (transduced with retrovirus expressing both Tret1-3×Flag and Treh-GFP) or wild-type HEK-293T cells. Trehalose was added at 5 mM, Oligomycin at 1 μM and 2DG (2-Deoxy-D-glucose) at 50 mM.
To directly examine this notion, whether trehalose restores glycolysis of Treh/Tret1 expressing cells was tested. For this purpose, the extracellular acidification rate (ECAR), as a proxy for lactate secretion, of Treh/Tret1 or wild-type cells, was analyzed using Seahorse analysis.

Assay [2] concerns HEK-293T cells. As to the kind of experiment: Cell survival by PI staining (flow cytometry) of transfected HEK-293T cells in glucose-free, trehalose-supplemented medium. It counts as cell-based, human. The following applies: four days. The protocol:
(§1) FIGS. 2A-2C: Treh and Tret1 co-expression rescues the proliferation and survival of HEK-293T cells in glucose-free, trehalose-supplemented medium. (2A) Histograms of cell survival as measured by PI staining using a flow cytometer. HEK-293T cells were transfected with either Tret1-3×Flag expression plasmid, HA-Treh expression plasmid or both together. 48 h post-transfection medium was replaced to a glucose-free medium supplemented with the indicated trehalose concentrations. Four days later flow analysis was performed. (2B) Histograms of cell survival as measured by PI staining using a flow cytometer. HEK-293T cells were co-transfected with Tret1-3×Flag and HA-Treh expression plasmids or pCDNA3.1 (empty vector). 48 h post-transfection medium was replaced with glucose-free medium supplemented with the 25 mM trehalose. Four days later, flow analysis was performed. (2C) Bar graph of MMT analysis. HEK-293T cells were transfected with pCDNA3.1 (empty vector), Tret1-3×Flag or HA-Treh expression plasmids or both plasmids together. 48 h post-transfection medium was replaced with glucose-free medium supplemented with 25 mM trehalose. Ten days later, cell survival was measured by MTT assay.
(§2) To test the function of delivered Treh and Tret1 genes in HEK-293T cells the survival of Treh/Tret1 expressing cells was tested in the absence or presence of various trehalose concentrations in glucose-free media.
A general note: Flow cytometry measures light scatter and fluorescence of single cells or particles in a stream.

The next assay deals with human CD8 T cells. Description: Metabolic isotope tracing (13C6-glucose vs 13C12-trehalose, LC-MS) in DmTret1-1B/Treh-expressing human CD8 T cells. It counts as cell-based. The following applies: 24 h with 13C12-Trehalose vs 13C6-Glucose; glycolysis, pentose phosphate pathway, TCA cycle. How it is done: FIGS. 6A-6I: Human primary T cells utilize trehalose for glycolysis, proliferation and cytokine production. Human primary PBMCs were activated with anti-CD3 and anti-CD28 for 48 hours. Then, they were retrovirally transduced with Treh1 and a trehalose transporter. (6A) FACS analysis of the T cells transduced with Treh1-GFP and Dm-Tret1-1B-mKate2. CD8 T cells were gated, and expression was analyzed 48 h after transduction. (6B) FACS analysis of the T cells transduced with Treh1-GFP and Dm-Tret1-1A-mKate2. CD8 T cells were gated, and expression was analyzed 48 h after transduction. (6C) Normalized ECAR measured by Seahorse analysis following trehalose or glucose supplementation and oligomycin and 2DG injections of Treh1 or DmTret1-1B/Treh1-expressing CD8 T cells. (6D-G): DmTret1-1B/Treh-expressing human CD8 T cells were incubated for 24 h with 13C6-Glucose or 13C12-Trehalose. Then cell extracts and media were subjected to metabolic analysis using LC-MS. (6D) Levels of lactate isotopologues in the medium of the cells. (6E-G) Isotopologue distributions in the cell fraction of detected key metabolites generated during (6E) glycolysis, (6F) the TCA cycle and (6G) the phosphate pentose pathway. […] Cells were counted every 3-4 days. […] Media was collected and INF-γ concentration was measured by ELISA at optical density of 605 (O.D.605). […]

Assay [3] concerns HEK-293T cells. Description: MTT assay of transfected HEK-293T cells in glucose-free medium supplemented with trehalose. It counts as cell-based, human. The protocol: as §1, §2
In general terms: Formazan colour is commonly taken as a measure of viable cells.

The source of these data is patent US20260021180A1, “IMPROVING ADOPTIVE CELL TRANSFER THERAPY (ACT) TREATMENT” (YISSUM RESEARCH DEVELOPMENT COMPANY OF THE HEBREW …, priority 2022, published 2026).

As to `O=CC[C@@H](O)[C@H](O)[C@H](O)CO` [2-Deoxy-D-glucose, reference compound], the “ECAR of HEK293T cells expressing Treh/Tret1 following addition” value with HEK-293T cells [1] is recorded as “significantly decreased”.
Turning to `OC[C@H]1O[C@H](O[C@H]2O[C@H](CO)[C@@H](O)[C@H](O)[C@H]2O)[C@H](O)[C@@H](O)[C@@H]1O` [trehalose], the “ECAR of HEK293T cells expressing Treh/Tret1 following addition” value in the assay on HEK-293T cells [1] is listed as “significant increase”. Besides, the “rescue of survival of Treh/Tret1 expressing cells” value with HEK-293T cells [2] (HEK-293T co-transfected with Tret1-3×Flag and HA-Treh, glucose-free medium + 25 mM trehalose) is “could rescue the survival”. In the assay with HEK-293T cells [2] (HEK-293T with pCDNA3.1 empty vector, glucose-free medium + 25 mM trehalose), the “rescue of survival of empty vector transfected cells” value is “not”. In addition, in the assay on HEK-293T cells [2] (HEK-293T, glucose-free media, 2 mM trehalose, PI staining), the “survival of Treh/Tret1 expressing cells” value is “substantial rescue”. Also, the “survival of Treh/Tret1 expressing cells versus trehalose concentration” value with HEK-293T cells [2] (HEK-293T, glucose-free media, various trehalose concentrations) was “increased survival of the cells in correlation with the trehalose concentration”. For the same molecule, in the assay on human CD8 T cells, the “metabolic pathways into which the sugar integrates” value was “integrates into the same metabolic pathways as glucose”.
`CC[C@H]1/C=C/C=C/C[C@@H](C)[C@H](O)[C@@](C)(O)C(=O)[C@@H](C)[C@H](O)[C@@H](C)C(=O)[C@@H](C)[C@H](O)[C@@H](C)/C=C/C(=O)O[C@@H]2[C@H](C)[C@H](CC1)O[C@]1(CC[C@H](C)[C@H](C[C@@H](C)O)O1)[C@H]2C` [oligomycin, reference compound]: in the assay with HEK-293T cells [1], the “ECAR of HEK293T cells expressing Treh/Tret1 following addition” value was “did not lead to an elevation in ECAR”.

B1: Tret1: Drosophila melanogaster trehalose transporter 1, long isoform A, 857 amino acids (SEQ ID NO: 5), expressed in human cells (protein)
chain: MSGRDNRGAGGGGGGHQPLSNAMGKLKEKLTRVGDELGYHRVESNLSTSNTATSLDTILPEDPFLFPQVSPQRHPQNTVRTQRLLEDEPPLSFRPLLEDDDINEPPTQQQQRTPLRASGSLELTPLPPPPTSLEIREHRDRQQRGAQGDELQRSKQSLKGSRVSFERRDTGNSNTNSNKAAESSDEDSFEEKRTGFQQQKATSVDHKGILKDLKHILANDNRRQFQAKKHVSLDVKGTRFLQDLLKESSSEEEFHKTRREFQGRKHQSLDPRVTFKLDKVLQGSSTDSDEEGEDAEHKRLIHRPKDITKPVIIDLKDLESESDEDFLTSRQHFQQQRSISTDSRKSRRLYEMDEMDNKRGENIRHAVPFVRQITEDGKPKLEVYRPTTNPIYIWTQVLAALSVSLGSLVVGFVSAYTSPALVSMTDRNITSFEVTQDAGSWVGGIMPLAGLAGGIAGGPLIEYLGRRNTILATAVPFIVSSLLIACAVNVAMVLCGRFLAGFCVGIASLSLPVYLGETVQPEVRGTLGLLPTAFGNIGILLCFVAGSFMNWSMLAFLGAALPVPFLILMFLIPETPRWFVGRGLEERARKALKWLRGKEADVEPELKGLMRSQADADRQASRNTMLELLKLNNLKPLSISLGLMFFQQFSGINAVIFYTVQIFKDAGSTIDGNLCTIIVGIVNFLATFIGIVLIDRAGRKILLYVSDIAMVLTLFVLGGFFYCKTYGPDVSHLGWLPLTCFVIYILGFSLGFGPIPWLMMGEILPAKIRGSAASVATAFNWFCTFVVTKTFQDLTVAMGAHGAFWLFGAICFVGLFFVIIYVPETQGKTLEDIERKMMGRVRRMSSVANIKPLSFNM
modifications: 3xFlag tag; Drosophila melanogaster
As to B1, the “survival of mammalian cells with trehalose as the only sugar source (summary statement)” value in the assay with HEK-293T cells [3] is “greatly improved survival”.
